Data: PubChem BioAssay AID1259407 (Chemical Carcinogenesis Research Information System (CCRIS), 2018)
The source made the active and inactive calls. How the calls were made is not given here.

Tested on: CCRIS mutagenicity, Ames/micronucleus/aberration tests
Assay: CCRIS mutagenicity studies

Q: How did the mutagenic call (Test System: CHINESE HAMSTER V-79, Strain/Indicator: V-79 (HGPRT)/6-THIOGUANINE, Metabolic Activation: NONE) turn out when Oc1ccc(O)c(-c2ccccc2)c1 was run?
A: Its mutagenic call is “inactive; negative”.

Q: For Cc1nc2c(cc(C)c3ccc4ccc(O)cc4c32)[nH]1, which mutagenic call (Test System: AMES SALMONELLA TYPHIMURIUM, Strain/Indicator: TA98, Metabolic Activation: RAT, LIVER, S-9, AROCLOR, Method: STANDARD PLATE) is on record?
A: Its mutagenic call is “active; positive”.

Q: What does the source list for [As]?
A: mutagenic call (End Point: IN VIVO CHROMOSOMAL ABERRATIONS, Test System: BLOOD LYMPHOCYTES, Species: HUMAN, Strain/Sex: MALE, FEMALE, Route: ORAL, DRINKING WATER): active; positive (structural changes) ; all subjects showed arsenic-related skin lesions; mutagenic call (End Point: IN VIVO CHROMOSOMAL ABERRATIONS, Test System: PERIPHERAL BLOOD LYMPHOCYTES, Species: HUMAN, Strain/Sex: MALE, FEMALE, Route: DRINKING WATER): active; positive; exact form of arsenic not given: significant increase in exposed indiv; mutagenic call (End Point: IN VIVO MICRONUCLEUS, Test System: PERIPHERAL BLOOD LYMPHOCYTES, Species: HUMAN, Strain/Sex: MALE, FEMALE, Route: ORAL, DRINKING WATER): active; positive; environmental exposure from drinking water; mutagenic call (End Point: In vivo micronucleus, Test System: Peripheral lymphocytes, Species: Human, Strain/Sex: Male, Route: Inhalation (Occupational)): inactive; negative
